Laboratory results taken from publication PMC5300040 (Environmental Science & Technology, 2016).
Where two headings read alike, the source gives them in different places.

Tests used:
recombinant rat CYP2B1 = settings: cited from earlier work
dog CYP2B11 = settings: cited from earlier work
[1] = tested on: liver microsomes prepared from male Sprague–Dawley rats; type: in vitro ADME, rat; settings: for metabolite detection by GC–MS: 50 μM parent PCB, 2 h, 37 °C; for relative level of dihydroxylated metabolite: all rat liver microsomal preparations except PB-pretreated rats, GC-μECD
[2] = Racemization of OH-PCB metabolites; type: physicochemical; settings: CD column, GC-μECD; 300 °C for 2 h; methylated derivatives
[3] = tested on: liver microsomes from Cynomolgus monkeys (male); type: in vitro ADME; settings: monkey liver microsomes, compared with other liver microsomes
[4] = tested on: liver microsomes from rats, dogs, guinea pigs, hamsters, monkeys and rabbits; type: in vitro ADME; settings: for formation of monohydroxylated metabolite, GC–MS: all microsomal preparations investigated; for status of metabolite in incubations with liver microsomes of different species: dogs, guinea pigs, hamsters, monkeys, rabbits, all incubations
[5] = tested on: liver microsomes from untreated beagle dogs (female); type: in vitro ADME; settings: female dog liver microsomes; 50 μM parent PCB, 2 h, 37 °C
[6] = tested on: liver microsomes from golden Syrian hamsters (male); type: in vitro ADME; settings: male hamster liver microsomes; 50 μM parent PCB, 2 h, 37 °C
[7] = microsomes from phenobarbital (PB) pretreated rats
[8] = microsomes from isoniazid (INH) pretreated rats

SMILES | metabolite detection by GC–MS [1, 7] | EF after racemization [2] | formation of monohydroxylated metabolite, GC–MS [4] | status of metabolite in incubations with liver microsomes of different species [4] | relative level of dihydroxylated metabolite [1] | metabolite detection by GC–MS [1, 8] | further results
Oc1cc(Cl)c(Cl)c(-c2c(Cl)ccc(Cl)c2Cl)c1Cl [5-OH-PCB 136, 2,2′,3,3′,6,6′-hexachlorobiphenyl-5-ol] |  |  |  |  |  |  | metabolite formed (recombinant rat CYP2B1): 4,5-dihydroxylated PCB 136 metabolite; metabolite formed (dog CYP2B11): 4,5-dihydroxylated PCB 136 metabolite
Oc1ccc(Cl)c(-c2ccc(Cl)cc2Cl)c1Cl [OH-PCB 51, 2,2′,4,6′-tetrachlorobiphenyl-3′-ol] | major metabolite | 0.46 ± 0.01 | formed | major metabolite |  |  | extent of enantiomeric enrichment, comparison of congeners ([1]; incubations with rat liver microsomes): more pronounced enantiomeric enrichment compared to OH-PCB 102; extent of enantiomeric enrichment (EF) [3]: near racemic; rank order of EF values across species ([4]; EF = area E1/(area E1 + area E2), Chirasil-Dex column): monkey > rabbit ∼ guinea pig > hamster > rat > dog
Oc1ccc(Cl)c(-c2cc(Cl)c(Cl)cc2Cl)c1Cl [OH-PCB 102, 2,2′,4,5,6′-pentachlorobiphenyl-3′-ol] | major metabolite | 0.49 ± 0.01 | detected | major metabolite |  |  | 
Oc1cc(Cl)c(-c2ccc(Cl)cc2Cl)c(Cl)c1O [diOH-PCB 51, 3′,4′-dihydroxy-2,2′,4,6′-tetrachlorobiphenyl] | minor |  |  |  | minor metabolites | low levels | 
Oc1cc(Cl)c(-c2cc(Cl)c(Cl)cc2Cl)c(Cl)c1O [diOH-PCB 102, 3′,4′-dihydroxy-2,2′,4,5,6′-pentachlorobiphenyl] | formation |  |  |  | minor metabolites | formed | metabolite detection by GC–MS [5]: formed; metabolite detection by GC–MS ([1]; microsomes from corn oil (CO) treated rats): formed; metabolite detection by GC–MS [6]: formed
